Numbers after ± are expanded uncertainties.
Conditions: Liquid, Closed cell (Static) method

Compound: FC(F)(F)C(F)(F)C(F)(F)C(F)(F)C(F)(F)C(F)(F)C(F)(F)C(F)(F)F [octadecafluorooctane]
- vapor or sublimation pressure (308.45 K): 6.1 ± 12 kPa
- vapor or sublimation pressure (318.42 K): 10.1 ± 12 kPa
- vapor or sublimation pressure (323.48 K): 12.8 ± 12 kPa
- vapor or sublimation pressure (328.48 K): 16 ± 12 kPa
- vapor or sublimation pressure (338.43 K): 24.3 ± 12 kPa

From the NIST ThermoML archive (doi:10.1016/j.fluid.2013.01.017)
